Assay results from US4575497A, “3, 3", 4"-Tri-O-acylspiramycin I” (Kyowa Hakko Kogyo Co., Ltd, priority 1983, dated 1986).

Legend:
[1] = background literature, in words; cited from earlier work
[2] = system: Streptococcus pneumoniae Type III; assay: Infection-healing effect, mice protection test (Test Example); assay type: in vivo; conditions: for Number of survived mice out of 10 mice: 60 mg/kg in 0.3% CMC, orally just after i.p. inoculation (1.1×10^2 cfu/mouse), 7th day; for therapeutic effect in an infection-healing test in mice: Streptococcus pneumoniae Type III, compared with acetylspiramycin and 3, 3", 4"-tri-O-acetylspiramycin I
Method: A test example of the therapeutic effect of Compound (I) in experimental test mice protection test will be given below:
Animal: ddY-strain male mice, 19±lg, one group consisting of ten mice.
Test bacterium: Streptococcus pneumoniae Type III, Inoculation rate: 1.1×10^2 cfu/mouse.
The predetermined amount of the precultured test bacteria was inoculated via i.p.
Medicament administration: 60 mg/kg of each of the medicaments was suspended in 0.3% CMC, and orally administered just after the inoculation of bacteria.

Bacillus cereus KB143 = assay: MIC against Bacillus cereus KB143 (D); assay type: cell-based; conditions: Heart infusion agar (pH 7.0)
Excerpt: (§1) The minimum inhibitory concentration (MIC) of Compound (I) is shown in Table 4 in comparison with that of spiramycin I.
(§2) Minimum inhibitory concentration (MIC, μ g/ml)
(§3) Remark: medium used: Heart infusion agar (pH 7.0)
D: Bacillus cereus KB143

Bacillus subtilis KB211 = assay: MIC against Bacillus subtilis KB211 (C); assay type: cell-based; conditions: Heart infusion agar (pH 7.0)
Excerpt: as §1, §2, §3
C: Bacillus subtilis KB211

Escherichia coli KB213 = assay: MIC against Escherichia coli KB213 (F); assay type: cell-based; conditions: Heart infusion agar (pH 7.0)
Excerpt: as §1, §2, §3
F: Escherichia coli KB213

[3] = system: Staphylococcus aureus KB210; assay: MIC against Staphylococcus aureus KB210 (A); assay type: cell-based; conditions: Heart infusion agar (pH 7.0)
Excerpt: as §1, §2, §3
A: Staphylococcus aureus KB210

[4] = system: Klebsiella pneumoniae KB214; assay: MIC against Klebsiella pneumoniae KB214 (G); assay type: cell-based; conditions: Heart infusion agar (pH 7.0)
Excerpt: as §1, §2, §3
G: Klebsiella pneumoniae KB214

[5] = system: Staphylococcus aureus KB199; assay: MIC against Staphylococcus aureus KB199 (B); assay type: cell-based; conditions: Heart infusion agar (pH 7.0)
Excerpt: as §1, §2, §3
B: Staphylococcus aureus KB199

Micrococcus ruteus KB212 = assay: MIC against Micrococcus ruteus KB212 (E); assay type: cell-based; conditions: Heart infusion agar (pH 7.0)
Excerpt: as §1, §2, §3
E: Micrococcus ruteus KB212

For `CCCC(=O)O[C@H]1[C@H](C)O[C@@H](O[C@H]2[C@H](N(C)C)[C@@H](O)[C@H](O[C@H]3[C@@H](CC=O)C[C@@H](C)[C@@H](O)/C=C/C=C/C[C@@H](C)OC(=O)C[C@@H](O)[C@@H]3OC)O[C@@H]2C)C[C@@]1(C)OC(=O)CC` [3"-O-propionyl compound of leucomycin A5], the “in vivo activity compared with starting compounds” value [1] is given as “better in vivo activity”.
For `CCCC(=O)OC1(C)CC(OC2C(C)OC(OC3C(CC=O)CC(C)C(OC4CCC(N(C)C)C(C)O4)C=CC=CCC(C)OC(=O)CC(OC(C)=O)C3OC)C(O)C2N(C)C)OC(C)C1OC(C)=O` (stereo not drawn) [Compound 6, 3, 4"-di-O-acetyl-3"-O-butyrylspiramycin I], the “Number of survived mice out of 10 mice” value [2] was 10 mice out of 10 mice, the “therapeutic effect in an infection-healing test in mice” value [2] was “more excellent therapeutic effect than acetylspiramycin and 3, 3", 4"-tri-O-acetylspiramycin I” and the “Minimum inhibitory concentration (MIC)” value (Bacillus cereus KB143) was 1.56 μ g/ml. For the same compound, the “Minimum inhibitory concentration (MIC)” value (Bacillus subtilis KB211) was 3.12 μ g/ml, the “Minimum inhibitory concentration (MIC)” value (Escherichia coli KB213) was > 100 μ g/ml and the “Minimum inhibitory concentration (MIC)” value [3] was 6.25 μ g/ml. For the same compound, the “Minimum inhibitory concentration (MIC)” value [4] was > 100 μ g/ml, the “Minimum inhibitory concentration (MIC)” value [5] was > 100 μ g/ml and the “Minimum inhibitory concentration (MIC)” value (Micrococcus ruteus KB212) was 0.2 μ g/ml.
In the case of “3", 9-di-O-acetyl compound of midecamycin”, the “in vivo activity compared with starting compounds” value [1] is given as “better in vivo activity”.
In the case of `CO[C@@H]1[C@@H](O[C@@H]2O[C@H](C)[C@@H](O[C@H]3C[C@@](C)(O)[C@@H](O)[C@H](C)O3)[C@H](N(C)C)[C@H]2O)[C@@H](CC=O)C[C@@H](C)[C@@H](O[C@H]2CC[C@H](N(C)C)[C@@H](C)O2)/C=C/C=C/C[C@@H](C)OC(=O)C[C@H]1O` [SPMI, Spiramycin I], the “Number of survived mice out of 10 mice” value [2] is reported as 0 mice out of 10 mice, the “Minimum inhibitory concentration (MIC)” value (Bacillus cereus KB143) is reported as 1.56 μ g/ml and the “Minimum inhibitory concentration (MIC)” value (Bacillus subtilis KB211) is reported as 0.78 μ g/ml. For the same compound, the “Minimum inhibitory concentration (MIC)” value (Escherichia coli KB213) was 100 μ g/ml, the “Minimum inhibitory concentration (MIC)” value [3] was 1.56 μ g/ml and the “Minimum inhibitory concentration (MIC)” value [4] was 100 μ g/ml. For the same compound, the “Minimum inhibitory concentration (MIC)” value [5] was > 100 μ g/ml and the “Minimum inhibitory concentration (MIC)” value (Micrococcus ruteus KB212) was < 0.1 μ g/ml.
For `CCCC(=O)OC1C(C)OC(OC2C(C)OC(OC3C(CC=O)CC(C)C(OC4CCC(N(C)C)C(C)O4)C=CC=CCC(C)OC(=O)CC(OC(=O)CC)C3OC)C(O)C2N(C)C)CC1(C)OC(=O)CC` (stereo not drawn) [Compound 9, 3, 3"-di-O-propionyl-4"-O-butyrylspiramycin I], the “Number of survived mice out of 10 mice” value [2] was 8 mice out of 10 mice, the “therapeutic effect in an infection-healing test in mice” value [2] was “more excellent therapeutic effect than acetylspiramycin and 3, 3", 4"-tri-O-acetylspiramycin I” and the “Minimum inhibitory concentration (MIC)” value (Bacillus cereus KB143) was 3.12 μ g/ml. For the same compound, the “Minimum inhibitory concentration (MIC)” value (Bacillus subtilis KB211) was 3.12 μ g/ml, the “Minimum inhibitory concentration (MIC)” value (Escherichia coli KB213) was > 100 μ g/ml and the “Minimum inhibitory concentration (MIC)” value [3] was 3.12 μ g/ml. The “Minimum inhibitory concentration (MIC)” value [4] was > 100 μ g/ml, the “Minimum inhibitory concentration (MIC)” value [5] was > 100 μ g/ml and the “Minimum inhibitory concentration (MIC)” value (Micrococcus ruteus KB212) was 0.2 μ g/ml.
In the case of `CCC(=O)OC1(C)CC(OC2C(C)OC(OC3C(CC=O)CC(C)C(OC4CCC(N(C)C)C(C)O4)C=CC=CCC(C)OC(=O)CC(OC(C)=O)C3OC)C(O)C2N(C)C)OC(C)C1OC(C)=O` (stereo not drawn) [Compound 5, 3, 4"-di-O-acetyl-3"-O-propionylspiramycin I], the “Number of survived mice out of 10 mice” value [2] is reported as 3 mice out of 10 mice, the “Minimum inhibitory concentration (MIC)” value (Bacillus cereus KB143) is reported as 1.56 μ g/ml and the “Minimum inhibitory concentration (MIC)” value (Bacillus subtilis KB211) is reported as 3.12 μ g/ml. The “Minimum inhibitory concentration (MIC)” value (Escherichia coli KB213) was > 100 μ g/ml, the “Minimum inhibitory concentration (MIC)” value [3] was 3.12 μ g/ml and the “Minimum inhibitory concentration (MIC)” value [4] was > 100 μ g/ml. For the same compound, the “Minimum inhibitory concentration (MIC)” value [5] was > 100 μ g/ml and the “Minimum inhibitory concentration (MIC)” value (Micrococcus ruteus KB212) was < 0.1 μ g/ml.
